The source of these data is ChEMBL document CHEMBL1151564, “Arylacetamide kappa-selective opioid ligands” (Bioorg Med Chem Lett, 1997).

In one assay the target is Mu-type opioid receptor (Cavia porcellus, UniProt P97266). Put plainly: Compound was evaluated for the inhibition of Opioid receptor mu 1 binding to guinea pig brain membranes, using [3H]- DAMGO as radioligand.
In assay [1] the target is Kappa-type opioid receptor (Cavia porcellus, UniProt P41144). Put plainly: Compound was evaluated for the inhibition of Opioid receptor kappa1 binding to guinea pig brain membranes, using 1 nM [3H]- U69,593 as radioligand.
Kappa-type opioid receptor, sequence (P41144 whole entry): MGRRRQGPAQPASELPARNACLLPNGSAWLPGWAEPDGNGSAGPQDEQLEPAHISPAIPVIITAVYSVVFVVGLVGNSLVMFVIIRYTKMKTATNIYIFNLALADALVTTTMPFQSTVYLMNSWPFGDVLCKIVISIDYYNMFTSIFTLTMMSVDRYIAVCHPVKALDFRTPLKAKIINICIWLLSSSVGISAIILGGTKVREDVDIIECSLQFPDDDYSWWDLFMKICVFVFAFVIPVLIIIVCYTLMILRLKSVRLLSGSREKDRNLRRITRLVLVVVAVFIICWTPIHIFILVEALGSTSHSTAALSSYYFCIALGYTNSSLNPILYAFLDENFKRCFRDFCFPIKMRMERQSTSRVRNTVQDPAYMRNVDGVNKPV
The nature of assay [2]: Percent specific binding was evaluated by Phycoerythrin fluorescent labeling of R1EGO mouse thymoma cells. The format is functional.
A short description of assay [3]: Nonspecific binding was evaluated by Phycoerythrin fluorescent labeling of R1EGO mouse thymoma cells. Format: functional.
A short description of assay [4]: Total binding was evaluated by Phycoerythrin fluorescent labeling of R1EGO mouse thymoma cells. Format: functional.
Assay [5] is described as follows: Specific binding was evaluated by Phycoerythrin fluorescent labeling of R1EGO mouse thymoma cells. Format: functional.

Mu-type opioid receptor, sequence (P97266 whole entry): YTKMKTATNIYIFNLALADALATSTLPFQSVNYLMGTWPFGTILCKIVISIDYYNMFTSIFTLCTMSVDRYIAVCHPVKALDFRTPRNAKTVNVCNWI

With `CN(C(=O)Cc1ccc(Cl)c(Cl)c1)C(CN1CCCC1)c1cccc(N/C(S)=N/c2ccc(-c3c4ccc(=O)cc-4oc4cc(O)ccc34)c(C(=O)O)c2)c1` (stereo unspecified), the figures for the Ki (at Mu-type opioid receptor; in assay [1]) were 176 nM and 8.2 nM, respectively.
With `CN(C(=O)Cc1ccc(Cl)c(Cl)c1)[C@H](CN1CCCC1)c1cccc(N/C(S)=N/c2ccc(-c3c4ccc(=O)cc-4oc4cc(O)ccc34)c(C(=O)O)c2)c1`, the Binding in assay [2] was found to be 91%. For the same molecule, the figures for the Ki (at Mu-type opioid receptor; in assay [1]) were 98 nM and 1.4 nM, respectively. Also, the Non-specific binding in assay [3] stood at 7. The Total binding in assay [4] is recorded as 64. This molecule also displayed a Specific binding in assay [5] of 57.
Take `CN(C(=O)Cc1ccc(Cl)c(Cl)c1)[C@@H](CN1CCCC1)c1cccc(N/C(S)=N/c2ccc(-c3c4ccc(=O)cc-4oc4cc(O)ccc34)c(C(=O)O)c2)c1`: the Ki at Mu-type opioid receptor amounted to 1190 nM; in assay [1], 139 nM. For the same molecule, the Non-specific binding in assay [3] is -5. In assay [4], this molecule displayed a Total binding of 12.
As to `CC(=O)Nc1cccc([C@H](CN2CCCC2)N(C)C(=O)Cc2ccc(Cl)c(Cl)c2)c1`, the inhibition constant Ki was found to be 1040 nM at Mu-type opioid receptor and 17.5 nM in assay [1].
Taken in the same sequence, the figures for `CC(=O)Nc1cccc([C@@H](CN2CCCC2)N(C)C(=O)Cc2ccc(Cl)c(Cl)c2)c1` were 8.37 nM and 0.0855 nM.

What is called Ki is the equilibrium dissociation constant of an inhibitor or competing ligand from its target. The low end stands for higher affinity, the high end for lower affinity.
